Data published in PubChem BioAssay (NCI).
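Growth conditions: 96-well plates. Treatment: test compound, 48 hours, 5 concentrations. Analysis: linear interpolation between bracketing concentrations; unreached endpoints set to highest concentration. Here, GI50 denotes the concentration required for 50% inhibition of growth. TGI denotes the concentration required for complete inhibition of growth.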

What was measured:
Test in all cases: NCI tumour cell line growth inhibition, 48 h
SW-620 colon = test system: SW-620 colon
SK-MEL-5 melanoma = test system: SK-MEL-5 melanoma
OVCAR-4 ovarian = test system: OVCAR-4 ovarian
SF-295 CNS = test system: SF-295 CNS
M14 melanoma = test system: M14 melanoma
SF-268 CNS = test system: SF-268 CNS
MDA-MB-435 = test system: MDA-MB-435
CCRF-CEM leukemia = test system: CCRF-CEM leukemia
MCF7 breast = test system: MCF7 breast
HCT-15 colon = test system: HCT-15 colon
SF-539 CNS = test system: SF-539 CNS
EKVX NSCLC = test system: EKVX NSCLC
UO-31 renal = test system: UO-31 renal
SNB-75 CNS = test system: SNB-75 CNS
SK-MEL-28 melanoma = test system: SK-MEL-28 melanoma
SR leukemia = test system: SR leukemia
A549 NSCLC = test system: A549 NSCLC
HCC-2998 colon = test system: HCC-2998 colon
SK-MEL-2 melanoma = test system: SK-MEL-2 melanoma
UACC-62 melanoma = test system: UACC-62 melanoma
NCI/ADR-RES ovarian = test system: NCI/ADR-RES ovarian
MDA-MB-231 breast = test system: MDA-MB-231 breast
K-562 leukemia = test system: K-562 leukemia
TK-10 renal = test system: TK-10 renal
NCI-H460 lung = test system: NCI-H460 lung
LOX IMVI melanoma = test system: LOX IMVI melanoma
786-0 renal = test system: 786-0 renal
A498 renal = test system: A498 renal
NCI-H23 lung = test system: NCI-H23 lung

## O=C1c2c(Cl)c(Cl)c(Cl)c(Cl)c2C(=O)C2(Cl)CC=CCC12Cl (configuration not stated)
SW-620 colon
  TGI: 3.08 µM
SK-MEL-5 melanoma
  GI50: 1.77 µM
  TGI: 3.79 µM
OVCAR-4 ovarian
  GI50: 1.9 µM
  TGI: 3.41 µM
SF-295 CNS
  GI50: 3.35 µM
  TGI: 11.2 µM
M14 melanoma
  GI50: 1.67 µM
  TGI: 3.19 µM
SF-268 CNS
  GI50: 1.76 µM
  TGI: 3.2 µM
MDA-MB-435
  GI50: 2.06 µM
  TGI: 4.32 µM
CCRF-CEM leukemia
  GI50: 1.76 µM
  TGI: 7.28 µM
MCF7 breast
  GI50: 1.58 µM
  TGI: 3.55 µM
HCT-15 colon
  GI50: 1.19 µM
  TGI: 2.83 µM
SF-539 CNS
  GI50: 2.06 µM
  TGI: 4.05 µM
EKVX NSCLC
  GI50: 2.64 µM
  TGI: 7.81 µM
UO-31 renal
  GI50: 1.71 µM
  TGI: 3.28 µM
SNB-75 CNS
  GI50: 1.84 µM
  TGI: 3.34 µM
SK-MEL-28 melanoma
  GI50: 1.8 µM
  TGI: 3.28 µM
SR leukemia
  GI50: 1.15 µM
  TGI: 4.38 µM
A549 NSCLC
  GI50: 4.28 µM
  TGI: 16.3 µM
HCC-2998 colon
  GI50: 1.78 µM
  TGI: 3.3 µM
SK-MEL-2 melanoma
  GI50: 2.48 µM
  TGI: 4.89 µM
UACC-62 melanoma
  GI50: 1.67 µM
  TGI: 3.27 µM
NCI/ADR-RES ovarian
  GI50: 3.41 µM
  TGI: 13.2 µM
MDA-MB-231 breast
  GI50: 1.71 µM
  TGI: 3.13 µM
K-562 leukemia
  GI50: 1.09 µM
  TGI: 3.59 µM
TK-10 renal
  GI50: 2.06 µM
  TGI: 3.57 µM
NCI-H460 lung
  GI50: 3.09 µM
  TGI: 11 µM
LOX IMVI melanoma
  GI50: 1.21 µM
  TGI: 2.56 µM
786-0 renal
  GI50: 2 µM
  TGI: 3.62 µM
A498 renal
  GI50: 12.7 µM
  TGI: 25.3 µM
NCI-H23 lung
  GI50: 1.84 µM
  TGI: 3.94 µM
